According to US10590086B2, “Pharmaceutical compound” (IOmet Pharma Ltd., priority 2014, dated 2020):

Assays:
TDO [1] = molecular target: T1, TDO (Homo sapiens, UniProt P48775); assay: hTDO biochemical coupled assay; details: 330 μM L-tryptophan, 17 minutes, room temperature; read-out: hTDO biochemical assay pIC50 (converted)
IDO [2] = molecular target: T2, IDO (Homo sapiens, UniProt P14902); assay: hIDO biochemical coupled assay; details: 45 μM L-tryptophan, 17 minutes, room temperature; read-out: hIDO biochemical assay pIC50 (converted)
IDO [3] = molecular target: T2, IDO; assay: SKOV3 kynurenine cell-based assay (IDO induced by IFN-γ); parameters: IDO expression was induced in the SKOV3 cells by the addition of 500 ng/ml IFN-γ; endogenous in cells; host or cells: SKOV3 (human ovarian adenocarcinoma), induced with IFN-γ; details: SKOV3 human ovarian adenocarcinoma cells, 500 ng/ml IFN-γ, 48 hours, 500 μM L-tryptophan; read-out: SKOV3 Kynurenine cell based assay pIC50 (converted)
Method in brief: (§1)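 Kynurenine in the culture supernatant was measured by absorbance at 490 nm after 5 minutes with Ehrlich's reagent. Cells had been exposed ±compound for 48 hours at 37 °C in phenol red-free RPMI, 10% FCS, 2 mM L-glutamine and 500 μM L-tryptophan. Seeding was 30,000/well for A172 (TDO) and 40,000/well for SKOV3 (IDO, induced with 500 ng/ml IFN-γ).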

TDO [4] = molecular target: T1, TDO; assay: A172 kynurenine cell-based assay; parameters: This assay utilised cancer cells which expressed either TDO or IDO; endogenous in cells; host or cells: A172 (human glioblastoma); details: A172 human glioblastoma cells, 48 hours, 500 μM L-tryptophan; read-out: A172 Kynurenine cell based assay pIC50 (converted)
Method in brief: as §1

T2 sequence (P14902 whole entry): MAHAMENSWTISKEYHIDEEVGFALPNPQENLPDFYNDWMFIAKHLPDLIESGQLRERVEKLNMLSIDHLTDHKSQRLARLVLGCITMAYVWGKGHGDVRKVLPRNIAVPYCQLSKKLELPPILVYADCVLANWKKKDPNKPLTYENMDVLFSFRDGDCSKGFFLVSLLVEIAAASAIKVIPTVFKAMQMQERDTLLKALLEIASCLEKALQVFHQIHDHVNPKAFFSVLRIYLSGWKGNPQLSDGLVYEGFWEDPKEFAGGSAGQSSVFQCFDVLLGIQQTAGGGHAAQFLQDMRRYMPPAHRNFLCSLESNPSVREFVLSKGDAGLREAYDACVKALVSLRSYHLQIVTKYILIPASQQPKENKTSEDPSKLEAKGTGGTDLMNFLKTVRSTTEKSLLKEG
T1 sequence (P48775 whole entry): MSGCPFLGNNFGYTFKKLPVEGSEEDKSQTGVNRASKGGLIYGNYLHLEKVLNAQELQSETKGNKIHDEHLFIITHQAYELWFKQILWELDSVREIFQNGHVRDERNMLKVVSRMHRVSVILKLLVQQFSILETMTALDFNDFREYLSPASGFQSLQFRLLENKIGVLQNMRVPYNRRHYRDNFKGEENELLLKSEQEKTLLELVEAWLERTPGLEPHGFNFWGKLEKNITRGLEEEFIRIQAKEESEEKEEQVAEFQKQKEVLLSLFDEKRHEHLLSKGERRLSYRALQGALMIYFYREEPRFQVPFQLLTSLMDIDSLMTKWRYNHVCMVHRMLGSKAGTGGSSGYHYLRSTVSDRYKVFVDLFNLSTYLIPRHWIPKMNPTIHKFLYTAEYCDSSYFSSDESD

SMILES | IC50 (TDO [1]) [µM] | IC50 (IDO [2]) [µM] | IC50 (IDO [3]) [µM] | IC50 (TDO [4]) [µM]
CC1(C)CN(c2cc(Cl)cc3c(N)noc23)CCN1S(C)(=O)=O [Compound 317] | 3.24 to 31.6 | > 100 | 32.4 to 100 | > 100
O=C1CN(c2cc(Cl)cc3[nH]ncc23)CCN1 [Compound 318] | 3.24 to 31.6 | > 100 | > 100 | 3.24 to 31.6
OC1(c2cc(Cl)cc3[nH]ncc23)CCOCC1 [Compound 319] | < 3.16 | 3.24 to 31.6 | 32.4 to 100 | < 3.16
OC1(c2cc(Cl)cc3[nH]ncc23)CCCC1 [Compound 320] | < 3.16 | 3.24 to 31.6 | 3.24 to 31.6 | < 3.16
CC1(C)CN(c2cc(Cl)cc3c(N)n[nH]c23)CCN1S(C)(=O)=O [Compound 321] | > 100 | > 100 | 3.24 to 31.6 | 3.24 to 31.6
CC(=O)N1CCN(c2cc(Cl)cc3c(N)n[nH]c23)CC1 [Compound 322] | > 100 | > 100 | 3.24 to 31.6 | 3.24 to 31.6
CC(=O)N1CCN(c2cc(C#N)cc3[nH]ncc23)CC1 [Compound 323] | > 100 | > 100 | 32.4 to 100 | 32.4 to 100
Clc1cc(N2CCN(c3ccccn3)CC2)c2cn[nH]c2c1 [Compound 324] | < 3.16 | > 100 | 3.24 to 31.6 | < 3.16
CS(=O)(=O)N1CCC(c2cc(C3CCOCC3)cc3[nH]ncc23)CC1 [Compound 325] | > 100 | > 100 | 32.4 to 100 | 32.4 to 100
CCc1cc(C2CCN(S(C)(=O)=O)CC2)c2cn[nH]c2c1 [Compound 326] | < 3.16 | 3.24 to 31.6 | 3.24 to 31.6 | 3.24 to 31.6
Clc1cc(N2CCOCC2)c2cn[nH]c2c1 [Compound 327] | 3.24 to 31.6 | > 100 | 3.24 to 31.6 | 3.24 to 31.6
Clc1cc(N2CCc3[nH]ncc3C2)c2cn[nH]c2c1 [Compound 328] | < 3.16 | > 100 | 3.24 to 31.6 | < 3.16
O=C1NC2(CCN(c3cc(Cl)cc4[nH]ncc34)CC2)C(=O)N1CCO [Compound 330] | < 3.16 | < 3.16 | < 3.16 | < 3.16
O=C1NC2(CCN(c3cc(Cl)cc4[nH]ncc34)CC2)C(=O)N1Cc1ccccc1 [Compound 331] | < 3.16 | < 3.16 | < 3.16 | < 3.16
CN1CCN(c2cc(Cl)cc3[nH]ncc23)CC1=O [Compound 332] | < 3.16 | > 100 | > 100 | < 3.16
CS(=O)(=O)N1CCC(C(O)c2cc(Cl)cc3[nH]ncc23)CC1 (stereo not shown) [Compound 333] | < 3.16 | > 100 | 32.4 to 100 | 3.24 to 31.6
CC1(C)CN(c2cc(C#N)cc3[nH]ncc23)CCN1S(C)(=O)=O [Compound 334] | < 3.16 | < 3.16 | 3.24 to 31.6 | < 3.16
CC(=O)NC1CCN(c2cc(Cl)cc3[nH]ncc23)CC1(C)C (stereo not shown) [Compound 335] | < 3.16 | 3.24 to 31.6 | 3.24 to 31.6 | < 3.16
CC1(C)CN(c2cc(Cl)cc3[nH]ncc23)CCC1NS(C)(=O)=O (stereo not shown) [Compound 336] | < 3.16 | 3.24 to 31.6 | 3.24 to 31.6 | < 3.16
CC(=O)N(C)c1cc(C2CCN(S(C)(=O)=O)CC2)c2cn[nH]c2c1 [Compound 337] | > 100 | > 100 | 3.24 to 31.6 | > 100
CN(c1cc(C2CCN(S(C)(=O)=O)CC2)c2cn[nH]c2c1)S(C)(=O)=O [Compound 338] | > 100 | > 100 | > 100 | 3.24 to 31.6
Clc1cc(N2CCC(n3cccn3)CC2)c2cn[nH]c2c1 [Compound 339] | < 3.16 | < 3.16 | 3.24 to 31.6 | < 3.16
CS(=O)(=O)N1CCN(c2cc(C(F)(F)F)cc3[nH]ncc23)C2CCCCC21 (stereo not shown) [Compound 340] | > 100 | > 100 | 32.4 to 100 | 3.24 to 31.6
CS(=O)(=O)Nc1ccc2c(c1)CCN(c1cc(Cl)cc3[nH]ncc13)C2 [Compound 342] | < 3.16 | > 100 | 3.24 to 31.6 | < 3.16
Clc1cc(N2CCc3cnccc3C2)c2cn[nH]c2c1 [Compound 343] | < 3.16 | > 100 | 32.4 to 100 | < 3.16

SMILES | IC50 (TDO [1]) [µM] | IC50 (IDO [2]) [µM] | IC50 (IDO [3]) [µM] | IC50 (TDO [4]) [µM]
O=C1NCC2(CCN(c3cc(Cl)cc4[nH]ncc34)CC2)O1 [Compound 344] | < 3.16 | 3.24 to 31.6 | 3.24 to 31.6 | < 3.16
Clc1cc(N2CC=CCC2)c2cn[nH]c2c1 [Compound 345] | < 3.16 | 3.24 to 31.6 | 3.24 to 31.6 | < 3.16
Clc1cc(N2CCc3ccncc3C2)c2cn[nH]c2c1 [Compound 346] | < 3.16 | > 100 | 3.24 to 31.6 | < 3.16
CS(=O)(=O)N1CCC(n2cc(-c3cc(Cl)cc4[nH]ncc34)cn2)CC1 [Compound 347] | < 3.16 | > 100 | 3.24 to 31.6 | < 3.16
CC(=O)N1CCC(n2cc(-c3cc(Cl)cc4[nH]ncc34)cn2)CC1 [Compound 348] | < 3.16 | > 100 | 3.24 to 31.6 | < 3.16
CS(=O)(=O)N1CCC2(CCN(c3cc(Cl)cc4[nH]ncc34)CC2)C1 [Compound 349] | < 3.16 | 32.4 to 100 | 32.4 to 100 | < 3.16
CC(=O)N1CCC2(CCN(c3cc(Cl)cc4[nH]ncc34)CC2)C1 [Compound 350] | < 3.16 | 32.4 to 100 | 3.24 to 31.6 | < 3.16
CS(=O)(=O)N1CC2(CCN(c3cc(Cl)cc4[nH]ncc34)CC2)C1 [Compound 351] | < 3.16 | 32.4 to 100 | 3.24 to 31.6 | < 3.16
CC(=O)N1CCC2(CC1)CCN(c1cc(Cl)cc3[nH]ncc13)CC2 [Compound 352] | < 3.16 | 3.24 to 31.6 | < 3.16 | < 3.16
Clc1cc(C2CCCCC2)c2cn[nH]c2c1 [Compound 353] | < 3.16 | > 100 | 32.4 to 100 | < 3.16
O=c1[nH]c2ccccc2n1C1CCN(c2cc(Cl)cc3[nH]ncc23)CC1 [Compound 354] | < 3.16 | > 100 | 3.24 to 31.6 | < 3.16
CS(=O)(=O)N1CCC2(CCN(c3cc(Cl)cc4[nH]ncc34)CC2)CC1 [Compound 355] | < 3.16 | 32.4 to 100 | 3.24 to 31.6 | < 3.16
Cc1nc2c(n1C)CN(c1cc(Cl)cc3[nH]ncc13)CC2 [Compound 356] | 3.24 to 31.6 | > 100 | 3.24 to 31.6 | 3.24 to 31.6
Cc1nc2c(n1C)CN(c1cc(C(F)(F)F)cc3[nH]ncc13)CC2 [Compound 357] | 3.24 to 31.6 | > 100 | < 3.16 | < 3.16
CC(=O)Nc1ccc2c(c1)CCN(c1cc(Cl)cc3[nH]ncc13)C2 [Compound 358] | < 3.16 | > 100 | 3.24 to 31.6 | < 3.16
CC(=O)N1CC2(CCN(c3cc(Cl)cc4[nH]ncc34)CC2)C1 [Compound 359] | < 3.16 | 3.24 to 31.6 | 3.24 to 31.6 | < 3.16
Cn1cc2c(n1)CCN(c1cc(Cl)cc3[nH]ncc13)C2 [Compound 360] | < 3.16 | 32.4 to 100 | 3.24 to 31.6 | < 3.16
NS(=O)(=O)N1CCC2(CCN(c3cc(Cl)cc4[nH]ncc34)CC2)C1 [Compound 361] | < 3.16 | 3.24 to 31.6 | 3.24 to 31.6 | < 3.16
CN(C)C(=O)CC1CCN(c2cc(Cl)cc3[nH]ncc23)CC1 [Compound 362] | < 3.16 | > 100 | 3.24 to 31.6 | 3.24 to 31.6
NS(=O)(=O)N1CCC2(CCN(c3cc(Cl)cc4[nH]ncc34)CC2)CC1 [Compound 363] | < 3.16 | 32.4 to 100 | 3.24 to 31.6 | < 3.16
CNC(=O)CC1CCN(c2cc(Cl)cc3[nH]ncc23)CC1 [Compound 364] | < 3.16 | > 100 | 3.24 to 31.6 | < 3.16
Clc1cc(N2CCN(c3nccs3)CC2)c2cn[nH]c2c1 [Compound 365] | < 3.16 | > 100 | 3.24 to 31.6 | < 3.16
Cn1cc(-c2cc(Cl)cc3[nH]ncc23)cn1 [Compound 366] | 3.24 to 31.6 | > 100 | 3.24 to 31.6 | < 3.16
NS(=O)(=O)N1CC2(CCN(c3cc(Cl)cc4[nH]ncc34)CC2)C1 [Compound 367] | < 3.16 | 3.24 to 31.6 | 3.24 to 31.6 | < 3.16
